We go through eleven compounds from patent US11213701B2, “Neuroprotective quinoline sulfonamides” (priority 2018, dated 2022).

In assay [1] the test system is SUMOylation of His-RanGap (SUMO-E1 (SAE), SUMO-E2 (UBC9), GST-SUMO). Nature of the assay: HTRF assay measuring increase in SUMOylation of His-RanGap. The format is biochemical. Particulars: His-RanGap substrate; HTRF 665/620 ratio; 70 nl of 2 mM compound in DMSO per well; 30 min at room temperature; triplicate. How it is done: Assay measuring increase in SUMOylation of His-RanGap. We utilized an HTRF assay containing SUMO-E1 (SAE), SUMO-E2 (UBC9), GST-SUMO and His-RanGap, a known SUMO substrate, as well as the respective fluorescent antibodies. The assay was run in 1536-well plate format and the selected activators were chosen based on their ability to increase the FRET signal over a baseline level. In 1536-well white plates, 2 μl of phosphate buffered saline (assay buffer) was dispensed into columns 1 and 2, and 2 μl of Mixture 1 (37.5 nM E1 and 100 nM His-RanGap-1) in assay buffer (50 mM Tris-HCl pH 7.4, 0.3 mM DTT, 10 mM MgCl2, 0.005% Tween-20), was dispensed into columns 3-48. Using a pintool, 70 nl of 2 mM compounds in DMSO was dispensed to columns 5-48 and 70 nl of DMSO was dispensed to columns 1-4. Using the Thermo Scientific MultiDrop Combi, 2 μL of Mixture 2 (20 mM ATP, 12.5 nM E2 and 30 nM GST-SUMO in buffer) was dispensed to all wells and incubated for 30 min. at room temperature followed by 1 μl of 500 mM KF. Plates were read on a PheraStar in a HTRF mode (Ex: 337 nm; Em: 620/665 nm). The ratio of fluorescence 665 over 620 was utilized as a readout of the assay. Increase in SUMOylation was calculated by comparison to baseline level. Measurements were done in triplicate.

A further assay relates to CSM14.1 neuronal cells. Put plainly: Rescue of CSM14.1 neurons from thapsigargin-induced cell death (ATPlite cell viability). It is filed as cell-based, rat. Particulars: 15 μM thapsigargin for 20 h after 2 h preincubation, TG alone causes ~100% cell death. From the text:
Ability of compounds to rescue CSM14.1 neurons from thapsigargin-induced cell death. To assess the ability of the compounds to rescue neurons from ER stress-induced cell death, the rat striatal neuroprogenitor cell line CSM14.1 was used. Endoplasmic reticulum (ER) stress has been established as the major cause of neuronal loss in stroke, ischemia, and neurodegeneration (Tajiri, S.; Oyadomari, S.; Yano, S.; Morioka, M.; Gotoh, T.; Hamada, J. I.; Ushio, Y.; Mori, M. Cell Death Differ. 2004, 11, 403-415; Kohno, K.; Higuchi, T.; Ohta, S.; Kumon, Y.; Sakaki, S. Neurosci. Lett. 1997, 224, 17-20; Iadecola, C.; Zhang, F.; Casey, R.; Nagayama, M.; Ross, M. E. J. Neurosci. 1997, 17, 9157-9164). Thus, we used the known ER stress-causing agent thapsigargin (TG) to model the compromised state in vitro. TG causes 100% cell death in most cases, and compounds were assessed for neuroprotection by measuring cell viability when dosed at 10 μM. CSM14.1 cells were recovered from cultures by trypsinization and plated in 96-well plates and incubated overnight at 32° C. 5 μl of test compound was added to achieve a final concentration of […]. Salubrinal and DMSO without compound were used as positive and negative controls, respectively. After 2 h of preincubation, TG-containing DMEM was added to give a final concentration of 15 μM and incubated for an additional 20 h. Cell viability was assessed by a cellular ATP content assay (ATPlite, PerkinElmer Life Sciences).
Background: Cellular ATP, detected with luciferase, serves as a proxy for viable cell number.

For the next assay, the system named is BGMK cells. Put plainly: Rescue of BGMK cells from thapsigargin-induced cell death (CCK-8 cell viability). The format is cell-based. Conditions: for % BGMK Cell Viability after treatment in Presence of 10 μM compound: 2 hr pretreatment, TG 24 hrs, TG alone causes ~100% cell death. From the text: Ability of compounds to rescue BGMK cells from thapsigargin-induced cell death. To assess an orthogonal cell line and further validate the ability of SUMOylation activators to rescue varied cell types, the compounds were also profiled for cytoprotection in BGMK cells. Again, we used the known ER stress-causing agent thapsigargin (TG) to model the compromised state in vitro. BGMKs were subcultured at 1.2×10^4 cells/ml. Wells treated with compound were done so for 2 hr. […] After treatment, all cells were washed and fed fresh DMEM complete media and CCK-8 development vehicle, incubated for 2 hr, and absorbance was measured to assess viability. Controls were DMSO (0% viability) and Salubrinal (47% viability).

Consider `Cc1ccc(S(=O)(=O)Nc2cccc3cccnc23)cc1` [Compound A6, 4-Methyl-N-(quinolin-8-yl)benzenesulfonamide], for which the “% INCREASE IN SUMOylation over endogenous baseline level” value (“% INCREASE IN SUMOylation” below) in assay [1] is listed as “B (B = 21%-30% increase)”. The “% CSM14.1 Cell Viability after treatment with 15 μM TG in Presence of 10 μM compound” value (shortened to “% CSM14.1 Cell Viability after treatment”) in the assay with CSM14.1 neuronal cells is on record as “C (C = 61%-70% viability of CSM14.1 neurons)”. Besides, the “% BGMK Cell Viability after treatment in Presence of 10 μM compound” value (“% BGMK Cell Viability after treatment” for short) in the assay on BGMK cells is “C (C = 51%-60% viability)”. Consider `COc1cc(NS(=O)(=O)c2ccc3ccccc3c2)c2ncccc2c1` [Compound A9, N-(6-Methoxy-8-quinolinyl)-2-naphthalenesulfonamide], for which the “% INCREASE IN SUMOylation” value in assay [1] is “B (B = 21%-30% increase)”. Still for that read-out and setting: as for `COc1ccc(NS(=O)(=O)c2ccc3ccccc3c2)c2ncccc12` [Compound A4, N-(5-Methoxy-8-quinolinyl)-2-naphthalenesulfonamide], the entry is “C (C = 31%-40% increase)”; as for `Cc1cc(C)n(-c2ccc3cccc(NS(C)(=O)=O)c3n2)n1` [Compound A7, N-[2-(3,5-Dimethyl-1H-pyrazol-1-yl)-8-quinolinyl]methanesulfonamide], “B (B = 21%-30% increase)”. As to `O=C(/C=C/c1ccccc1)NC(NC(=S)Nc1cccc2cccnc12)C(Cl)(Cl)Cl` (stereo not shown) [Salubrinal, reference compound], the “BGMK cell viability (control)” value with BGMK cells (positive control after thapsigargin injury, DMSO = 0% viability, control concentration not given) is given as 47%. On to `CS(=O)(=O)Nc1cccc2cccnc12` [Compound A8, N-(8-Quinolinyl)methanesulfonamide], for which, in assay [1], the “% INCREASE IN SUMOylation” value is recorded as “B (B = 21%-30% increase)”. As for `O=S(=O)(Nc1cccc2cccnc12)c1ccccc1` [Compound A3, N-(Quinolin-8-yl)benzenesulfonamide], the “% INCREASE IN SUMOylation” value in assay [1] is recorded as “B (B = 21%-30% increase)”. For the same compound, in the assay on CSM14.1 neuronal cells, the “% CSM14.1 Cell Viability after treatment” value is reported as “A (A = 40%-50% viability)”. Moreover, in the assay on BGMK cells, the “% BGMK Cell Viability after treatment” value was “A (A = 30%-40% viability)”. Take `O=[N+]([O-])c1ccccc1S(=O)(=O)Nc1cccc2cccnc12` [Compound A5, 2-Nitro-N-(8-quinolinyl)benzenesulfonamide]: in assay [1], the “% INCREASE IN SUMOylation” value was “C (C = 31%-40% increase)”. Turning to `CC(=O)Nc1ccc(S(=O)(=O)Nc2cccc3cccnc23)cc1` [Compound A1, N-(4-(N-(Quinolin-8-yl)sulfamoyl)phenyl)acetamide], the “% INCREASE IN SUMOylation” value in assay [1] was “B (B = 21%-30% increase)”. Also, the “% CSM14.1 Cell Viability after treatment” value in the assay on CSM14.1 neuronal cells is “B (B = 51%-60% viability)”. In addition, the “% BGMK Cell Viability after treatment” value in the assay on BGMK cells is recorded as “C (C = 51%-60% viability)”.

For the compound `COc1cc(NS(=O)(=O)c2ccc(C)cc2)c2ncccc2c1` [Compound A10, N-(6-Methoxy-8-quinolinyl)-4-methylbenzenesulfonamide], in assay [1], the “% INCREASE IN SUMOylation” value is “C (C = 31%-40% increase)”. Turning to `O=S(=O)(Nc1cccc2cccnc12)c1ccc(S(=O)(=O)N2CCCC2)cc1` [Compound A2, 4-(Pyrrolidin-1-ylsulfonyl)-N-(quinolin-8-yl)benzenesulfonamide], the “% INCREASE IN SUMOylation” value in assay [1] was “D (D = 40%-50% increase in SUMOylation over baseline levels)”. In the assay with CSM14.1 neuronal cells, the “% CSM14.1 Cell Viability after treatment” value is recorded as “C (C = 61%-70% viability of CSM14.1 neurons)”. In addition, the “% BGMK Cell Viability after treatment” value with BGMK cells was “D (D = 61%-70% viability of BGMK cells)”.
